Converted amounts (≈) assume the structure as drawn.

The source of these data is patent US8859625B2, “Methods to prepare penta-1,4-dien-3-ones and substituted cyclohexanones and derivatives with antitumoral and antiparasitic properties, the compounds and their uses” (Universidade Bandeirante de Sao Paulo-Academia, Paulista …, priority 2006, dated 2014).

The subject of series [1] is amastigote-like forms of Leishmania (L) amazonensis. The experiment in a line: Viability of amastigote-like forms from axenic culture by MTT. To be noted: for O.D. (optical density): amastigote-like forms. Type of series: cell-based. As to the method: Compounds are solubilized with dimethyl sulfoxide (DMSO) to produce a stock solution from which samples with different concentrations are obtained, by adding the culture medium in sufficient volume as required to attain the first desired concentration with the other concentrations being obtained by serial dilution of this first one, at ratio 2. The cultures are incubated at 22° C. or 34° C. for promastigotes and amastigotes, respectively.
Viability and/or cellular proliferative assays of promastigote and amastigote forms are also performed by the MTT (diphenyl tetrazolium 3-[4,5-dimethylthiazol-2il]2,5-bromide) method as described by Moreira, et al. (Moreira, M. E. C., Del Portillo, H. A., Milder, R. V., Balanco, J. M. F. and Barcinski, M. A. Heat shock induction of apoptosis in promastigotes of the unicellular organism Leishmania (Leishmania) amazonensis, J. Cell Physiol 167, 305-313, 1996), modified.
After incubation of parasitic forms with the compounds, as described above, for predetermined periods of time for each experiment (24, 48, 72 hours, etc.), an 1.0 mL aliquot of cellular suspension is collected from each culture tube or vial and transferred to microcentrifuge tubes, where they are centrifuged at 14.000 rpm for 3 minutes, the culture medium is aspirated and discharged. To the sedimented cells are add 200 μL of PBS. After that, the volume in PBS of the cellular suspensions is splitted into two wells (duplicates of 100 μL each) of a 96 well culture plate. To each duplicate, […] of MTT (5 mg/mL stock solution, […]) are added. After 1 h or 1 h 30 min, at a temperature of 22° C. (promastigotes) or 34° C. (amastigotes), 100 μL of 10% SDS are added to each well to interrupt the reaction, to lyse the cells and to dissolve the formazan crystals, resulting in an homogeneous blue solution appropriate to the absorbance measure by a spectrophotometer for culture microplates (3550 BIORAD model, Richmond, Calif.), at 595 nm as test wavelength and 690 nm as the reference wavelength.
The optical density (O.D.) values correspond to MTT enzymatic reduction by the metabolic active cells. Consequently, the O.D. is directly proportional to the number of viable cells of the cellular suspension. The progressive increase of O.D. indicates cellular proliferation. Results are expressed as arithmetic average of the optical density duplicates.
Considering that the amastigote forms are those that multiply inside a vertebrate host and, consequently, are responsible for the disease, it is indispensable to evaluate the viability of these forms when incubated with HB-1.
This evaluation is performed as previously described and by applying the amastigote forms obtained from an axenic culture.

Series [2] relates to B16F10 melanoma cells. The experiment in a line: Cytotoxic and antiproliferative effects by the MTT colorimetric method on B16F10 melanoma cells. To be noted: Mus musculus, B16-F10, 24 h, compound diluted in Miglyol 810; 24 hour; from the linear equation; read-out: IC50. Type of series: cell-based, murine. The text has this:
Analysis of Cytotoxic and Antiproliferative Effects of HB-1 Compound and Miglyol 810® as Control by the MTT Colorimetric Method on B16F10 Melanoma Cells.
The colorimetric methodology for the respiratory route of mitochondria MTT (3-(4,5-dimethylthiazol-2-yl)2,5-diphenyl tetrazolium bromide) was used, as described by MOSMANN (1983). This method is based on the reduction of MTT to formazan by living cells. After growth and in vitro confluence of normal and tumoral cells, different concentrations of the HB-1 compound diluted in Miglyol 810® and the diluent-control (Miglyol 810®) have been added on the adhering cells, incubated for 24 hour. After the referred period, 10 μl of MTT (5 mg/mL) were added and incubated for 3 hours in stove with 5% CO2 at 37° C. After this period, the content of the culture plates were centrifuged for 2 minutes at 1800 rpm, at 4° C., the supernatant was removed and 100 μL of dimethyl sulfoxide (DMSO) were added to dissolve formazan crystals previously constituted and precipitated. The absorbances were obtained by an ELISA reader at 540 nm (TiterTek Multiskan) wavelength, with the results obtained shown in FIG. 12.
IC50 Evaluation for B16F10 Melanoma Cells, Obtained from the Linear Equation.

Series [3] relates to peritoneal normal macrophages. In words: Cytotoxic effect on peritoneal normal macrophages by the MTT method. Type of series: cell-based, Balb-C mice. The note with it: Mus musculus, Macrophage, diluted in Miglyol 810, 24 hours. As to the method:
Cytotoxic Effect of HB-1 Compound on Peritoneal Normal Macrophages Assessed by the MTT Method.
Peritoneal macrophages were obtained from normal Balb-C mice through the following procedure: abdominal cavities of the animals were opened under sterile conditions under a laminar flow and exposed. A 2 mL volume of saline solution, containing 5000 U frosty heparin (Liquemine-Roche), was injected into the cavity, followed by a massage and collection of the peritoneal wash irrigation liquid, centrifuged at 2000 rpm for 10 minutes at 4° C.
The suspension was resuspended with RPMI-1640 culture medium supplemented with 10% bovine fetal serum, with the count cell number adjusted to 10^6/mL in a Neubauer chamber. Aliquots of the macrophages were cultivated on plates with 96 flat bottom wells, incubated with and without HB-1 compound diluted in Miglyol 810®. After 24 hours, the plates were submitted to the cytotoxic and antiproliferative effect assessment by the MTT calorimetric method.

By IC50 is commonly meant the midpoint of a concentration-inhibition curve. Turning to `COc1cc(C=CC(=O)C=Cc2ccc(O)c(OC)c2)ccc1O` [HB-1, 1,5-Bis-(4-hydroxy-3-methoxy-phenyl)-penta-1,4-dien-3-one], in series [1] (10 μg/mL and 20 μg/mL, first 24 hours), the “inhibition of cellular activity of amastigotes” value came to 100%. The “O.D. (optical density)” value is given as 0.16 in series [1] (HB-1 5 μg/mL, 24 hours); 0.012 in series [1] (HB-1 5 μg/mL, 48 hours); 0.012 in series [1] (HB-1 5 μg/mL, 72 hours); 0.010 in series [1] (HB-1 10 μg/mL, 24 hours); 0.014 in series [1] (HB-1 10 μg/mL, 48 hours); 0.014 in series [1] (HB-1 10 μg/mL, 72 hours). Further, the “O.D. (optical density)” value in series [1] (HB-1 20 μg/mL, 24 hours) worked out at 0.009; in series [1] (HB-1 20 μg/mL, 48 hours), 0.012; in series [1] (HB-1 20 μg/mL, 72 hours), 0.016. The compound further yielded a parasites nonviable in series [1] (all assayed concentrations, first 48 hours) of 100%. The 50% inhibitory concentration (IC50) in series [2] is 7 µg/mL (≈ 21.4 µM); in series [3], 16.9 µg/mL (≈ 51.8 µM).
